Legend:
[1] = Deodorant activity test; conditions: γ-CD 1 w/w %, Compound E 0.1 w/w %
Protocol: The predetermined samples shown in Tables 1 to 5 were tested for deodorant activity against ammonia, acetic acid, isovaleric acid, and nonenal. Now, the test, including the test conditions, will be specifically described. Test Items: The deodorant test and the test to gain SEK mark approval for textiles according to the certification standards of the Japan Textile Evaluation Technology Council (4 ml of sample liquid was applied to a cotton fabric and dried for a period of from 30 minutes to 1 hour. Then, the concentration of the gas volatilized from the cotton fabric was measured by a detection tube and gas chromatography) Odor tested: Ammonia, acetic acid, isovaleric acid, and nonenal Samples used: Sample 1): Compound E 0.1%+γ-CD 1%+purified water 98.9% • Sample 2): Compound E 0.1%+γ-CD 5%+purified water 94.9% Initial gas concentration: Ammonia: 100 ppm (100 cm^2) • Acetic acid: 50 ppm (100 cm^2) • Isovaleric acid: about 38 ppm (48 cm^2) • Nonenal: about 14 ppm (48 cm^2)

[2] = Stability over time (three-month storage tests, visual); assay type: physicochemical; conditions: purified water

CCCCCCCCCCCCCCCCCC[N+](C)(C)CCC[Si](OCC)(OCC)OCC.[Cl-] [Compound E, Octadecyl dimethyl(3-triethoxysilylpropyl)ammonium chloride]
Confirmed: Deodorant Effect: Deodorant Activity Test (by Detection Tube and Gas Chromatography) [1]
Stable: Change Over 3 Months (Accelerated Test at 40° C., Cold Test at 5° C., Ambient Test at 25° C.) ([2]; α-CD 1 w/w %, Compound E 0.1 w/w %) | Change Over 3 Months (Accelerated Test at 40° C., Cold Test at 5° C., Ambient Test at 25° C.) ([2]; α-CD 1 w/w %, Compound E 0.2 w/w %) | Change Over 3 Months (Accelerated Test at 40° C., Cold Test at 5° C., Ambient Test at 25° C.) ([2]; α-CD 1 w/w %, Compound E 0.3 w/w %) | Change Over 3 Months (Accelerated Test at 40° C., Cold Test at 5° C., Ambient Test at 25° C.) ([2]; α-CD 1 w/w %, Compound E 0.4 w/w %) | Change Over 3 Months (Accelerated Test at 40° C., Cold Test at 5° C., Ambient Test at 25° C.) ([2]; α-CD 1 w/w %, Compound E 0.5 w/w %) | Change Over 3 Months (Accelerated Test at 40° C., Cold Test at 5° C., Ambient Test at 25° C.) ([2]; α-CD 1 w/w %, Compound E 0.6 w/w %)
Not clear but stable: Change Over 3 Months (Accelerated Test at 40° C., Cold Test at 5° C., Ambient Test at 25° C.) ([2]; DEXYPEARL 1 w/w %, Compound E 0.1 w/w %) | Change Over 3 Months (Accelerated Test at 40° C., Cold Test at 5° C., Ambient Test at 25° C.) ([2]; DEXYPEARL 2 w/w %, Compound E 0.1 w/w %) | Change Over 3 Months (Accelerated Test at 40° C., Cold Test at 5° C., Ambient Test at 25° C.) ([2]; DEXYPEARL 3 w/w %, Compound E 0.1 w/w %) | Change Over 3 Months (Accelerated Test at 40° C., Cold Test at 5° C., Ambient Test at 25° C.) ([2]; DEXYPEARL 4 w/w %, Compound E 0.1 w/w %) | Change Over 3 Months (Accelerated Test at 40° C., Cold Test at 5° C., Ambient Test at 25° C.) ([2]; DEXYPEARL 5 w/w %, Compound E 0.1 w/w %) | Change Over 3 Months (Accelerated Test at 40° C., Cold Test at 5° C., Ambient Test at 25° C.) ([2]; DEXYPEARL 6 w/w %, Compound E 0.1 w/w %) | Change Over 3 Months (Accelerated Test at 40° C., Cold Test at 5° C., Ambient Test at 25° C.) ([2]; DEXYPEARL 7 w/w %, Compound E 0.1 w/w %) | Change Over 3 Months (Accelerated Test at 40° C., Cold Test at 5° C., Ambient Test at 25° C.) ([2]; DEXYPEARL 8 w/w %, Compound E 0.1 w/w %) | Change Over 3 Months (Accelerated Test at 40° C., Cold Test at 5° C., Ambient Test at 25° C.) ([2]; DEXYPEARL 9 w/w %, Compound E 0.1 w/w %) | Change Over 3 Months (Accelerated Test at 40° C., Cold Test at 5° C., Ambient Test at 25° C.) ([2]; DEXYPEARL 10 w/w %, Compound E 0.1 w/w %) | Change Over 3 Months (Accelerated Test at 40° C., Cold Test at 5° C., Ambient Test at 25° C.) ([2]; ISOELEAT 1 w/w %, Compound E 0.1 w/w %) | Change Over 3 Months (Accelerated Test at 40° C., Cold Test at 5° C., Ambient Test at 25° C.) ([2]; ISOELEAT 2 w/w %, Compound E 0.1 w/w %) | Change Over 3 Months (Accelerated Test at 40° C., Cold Test at 5° C., Ambient Test at 25° C.) ([2]; ISOELEAT 3 w/w %, Compound E 0.1 w/w %) | Change Over 3 Months (Accelerated Test at 40° C., Cold Test at 5° C., Ambient Test at 25° C.) ([2]; ISOELEAT 4 w/w %, Compound E 0.1 w/w %) | Change Over 3 Months (Accelerated Test at 40° C., Cold Test at 5° C., Ambient Test at 25° C.) ([2]; ISOELEAT 5 w/w %, Compound E 0.1 w/w %) | Change Over 3 Months (Accelerated Test at 40° C., Cold Test at 5° C., Ambient Test at 25° C.) ([2]; ISOELEAT 6 w/w %, Compound E 0.1 w/w %) | Change Over 3 Months (Accelerated Test at 40° C., Cold Test at 5° C., Ambient Test at 25° C.) ([2]; ISOELEAT 7 w/w %, Compound E 0.1 w/w %) | Change Over 3 Months (Accelerated Test at 40° C., Cold Test at 5° C., Ambient Test at 25° C.) ([2]; ISOELEAT 8 w/w %, Compound E 0.1 w/w %) | Change Over 3 Months (Accelerated Test at 40° C., Cold Test at 5° C., Ambient Test at 25° C.) ([2]; ISOELEAT 9 w/w %, Compound E 0.1 w/w %)
Precipitated: Change Over 3 Months (Accelerated Test at 40° C., Cold Test at 5° C., Ambient Test at 25° C.) ([2]; DEXYPEARL 20 w/w %, Compound E 0.1 w/w %) | Change Over 3 Months (Accelerated Test at 40° C., Cold Test at 5° C., Ambient Test at 25° C.) ([2]; DEXYPEARL 30 w/w %, Compound E 0.1 w/w %) | Change Over 3 Months (Accelerated Test at 40° C., Cold Test at 5° C., Ambient Test at 25° C.) ([2]; DEXYPEARL 40 w/w %, Compound E 0.1 w/w %) | Change Over 3 Months (Accelerated Test at 40° C., Cold Test at 5° C., Ambient Test at 25° C.) ([2]; ISOELEAT 10 w/w %, Compound E 0.1 w/w %) | Change Over 3 Months (Accelerated Test at 40° C., Cold Test at 5° C., Ambient Test at 25° C.) ([2]; ISOELEAT 20 w/w %, Compound E 0.1 w/w %) | Change Over 3 Months (Accelerated Test at 40° C., Cold Test at 5° C., Ambient Test at 25° C.) ([2]; ISOELEAT 30 w/w %, Compound E 0.1 w/w %) | Change Over 3 Months (Accelerated Test at 40° C., Cold Test at 5° C., Ambient Test at 25° C.) ([2]; ISOELEAT 40 w/w %, Compound E 0.1 w/w %) | Change Over 3 Months (Accelerated Test at 40° C., Cold Test at 5° C., Ambient Test at 25° C.) ([2]; ISOELEAT 50 w/w %, Compound E 0.1 w/w %)
